These results are taken from patent US5409946A, “Isoxazole, isothiazole and pyrazole compounds that enhance cognitive function” (Abbott Laboratories, priority 1993, dated 1995).

“Also recorded” adds a separate entry of the source. Like-named read-outs stand apart in the source and are kept apart here.

The test system of assay [1] is time spent in the open arms (anxiolytic activity). The assay is described as follows: Mouse elevated plus-maze. It is filed as in vivo, CD1 mice. The text has this: The mouse elevated plus-maze is a commonly-used conflict test that probes anxiolytic activity of test compounds (Lister, Psychopharmacology, 1987, 92 180). It is based on the fact that exposure of mice to an elevated open arm leads to an avoidance response considerably stronger than that evoked by exposure to an enclosed arm.
The apparatus required to perform this test is made of plywood and consists of two open arms (17×8 cm) and two enclosed arms (17×8×15 cm) extending from a central platform (8×8 cm). It is mounted on a plywood base rising 39 cm above the floor. Mice are released on the central platform and the time spent in the open and enclosed arms is recorded during a 5 minute test period.
The compound of Example 2 (0.0108-1.08 μmol/kg, i.p.) was administered to CD1 mice (n=12 per group) 15 minutes before the test.

For assay [2], the system named is ethanol-induced narcosis. It is filed as in vivo, male CD1 mice. The settings on record: post-treatment. The text has this:
It is known that administration of ethanol to mice induces a state of narcosis in the animals. […] It is also known that certain compounds can modify the narcotic effect of ethanol in this model.
Animals: Male CD1 mice (Charles-River Co., Portage, Mich.) weighing 25-30 g were used in the experiments. Upon arrival they were caged in groups of 14 and allowed to acclimatize to laboratory conditions for one week before the beginning of the studies. They were fed standard rodent diet with food and water ad libitum.
Duration of sleep time: Mice received intraperitoneal (i.p.) injections of ethanol and either saline or one of the drug treatments. Upon loss of the righting reflex, a timer was started to record the duration of the sleep time until the reflex was recovered. Two types of experiments were conducted to study the effect of drugs before (pre-treatment) or after (post-treatment) the injection of the narcotic dose of ethanol. In the pre-treatment experiments the drugs were injected i.p., 15 minutes before ethanol. In the post-treatment experiments the drugs were administered i.p., 1 minute after the animals lost the righting reflex, which was approximately 5 minutes after administration of ethanol.
Drugs: Ethanol was prepared as a 20% v/v (16% w/v) solution in saline. Based on previous studies, a dose of 87 mmol/kg (4 g/kg) was selected as the narcotic dose. RO 15-4513, the benzodiazepine receptor inverse agonist discussed in the Background section, was purchased from RBI (Natick, Mass.). It was dissolved in saline solution with Tween-80 and ultrasonically homogenized for 3 minutes. […] The compounds of Examples 2 and 4, both novel neuronal nicotinic receptor ligands according to the present invention, were also dissolved in saline to the desired concentrations.

In assay [3] the test system is anxiety induced by (-)-nicotine withdrawal. The assay is described as follows: Elevated plus-maze 48 hours after withdrawal of 14-day chronic (-)-nicotine. It is filed as in vivo, rats. The note with it: for TIME OPEN ARMS: chronic (-)-nicotine, mean ± SEM. The text has this:
The mouse elevated plus-maze is a conflict test that probes anxiolytic activity of test compounds (Lister, Psychopharmacology, 1987, 92:180). It is based on the fact that exposure of mice to an elevated open arm leads to an avoidance response considerably stronger than that evoked by exposure to an enclosed arm. Compounds may be tested for their ability to modify the avoidance response of the animal to the open arm maze. […] The effect of such potential anti-anxiety drugs may be tested further in a withdrawal challenge test.
Elevated Plus-Maze: The procedure originally described by Pellow et al., for rats was used, with minor modifications (Pellow et al., J. Neurosci. Meth., 14: 149, 1985). The apparatus consisted of two open arms (50×10 cm) and two enclosed arms (50×10×40 cm) extending from a central platform (10×10 cm). It was mounted on a base raising 50 cm above the floor. Light levels on the open and enclosed arms were similar. The animals were placed in the center of the maze and the time spent in the open arms and the total distance traveled by the rat were recorded automatically by a camera mounted above the apparatus, then analyzed by computer (Videomex™ software, Columbus Instruments, Columbus, Ohio). All animals used were naive to the apparatus. Animals were injected i.p. with saline or the different drug doses, and submitted to the test 30 minutes later. The test lasted 5 minutes, and the apparatus was thoroughly cleaned after removal of the animal.
The pumps were removed on day 14 and the animals were tested in the plus-maze 48 hours later, at the time when a state of withdrawal-induced anxiety was present in the rats. On the test day i.p. doses of either saline or the compound of Example 2 were administered to the animals 30 minutes before the test. Data (Table 13) represent the mean ±SEM time spent in the open arms of the plus-maze of 8-16 rats.

For `Cc1cc([C@@H]2CCCN2C)on1.O=C(O)C(=O)O` [Example 2, 3-Methyl-5-(1-methyl-2(S)-pyrrolidinyl)-isoxazole oxalate salt], in assay [1] (i.p., p<0.05), the “Elevated Plus-Maze (EPM) doses with significant effect” value is 0.036 to 1.08 µmol/kg. Further, the “Elevated Plus-Maze (EPM) result” value in assay [1] (i.p., time in open arms, p<0.05, oxalate salt) is given as “clear anxiolytic response; also recorded: significant”. For the same compound, the “anxiolytic potency relative to (-)-nicotine” value in assay [1] (more potent than (-)-nicotine) is “at least 10 fold”. The Sleeping time in assay [2] (0.062 μmol/kg i.p.) is given as 91 ± 20 % of controls; in assay [2] (0.19 μmol/kg i.p.), 68 ± 15 % of controls; in assay [2] (0.62 μmol/kg i.p.), 51 ± 8 % of controls. In assay [2] (i.p., p<0.05, one-tailed t test), the “effect of post-treatment on ethanol-induced narcosis” value is listed as “significantly reduced”. Further, the “effect on time spent in the open arms” value in assay [3] (48 h after withdrawal of chronic (-)-nicotine) was “significant increase in the time spent in the open arms”. The “TIME OPEN ARMS” value in assay [3] (challenge 0.19 μmol/kg i.p.) came to 36.8 ± 12.5 s; in assay [3] (challenge 0.62 μmol/kg i.p., **p < 0.05 against chronic nicotine, saline-challenged), 73.6 ± 7.7 s; in assay [3] (challenge 1.9 μmol/kg i.p.), 43.1 ± 10.1 s.
